Assay results from the supplement of paper PMC10307832.

Columns and labels:
Assay in all cases: relative viability (nuclei count vs DMSO), 5 days (fraction); higher = more cells survive
[1] = compound: C1COCCN1C2=NC(=NC3=C2OC4=C3C=CC=N4)C5=CC(=CC=C5)NC(=O)C6=CN=C(C=C6)N + O=C(c1cc(Cc2n[nH]c(=O)c3ccccc23)ccc1F)N1CCN(C(=O)C2CC2)CC1 [Olaparib] (partner 8 µM)
In short: (§1)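 After 5 days of treatment, lung cancer cells in 1536-well plates were fixed and stained in a single step (final 0.05% Triton X-100, 1% formaldehyde, 1 ug/ml Hoechst) and their nuclei counted on 4× images. Treatment had been applied by pin tool the day after seeding as one drug alone or as a fixed anchor-drug dose with five library-drug doses (not always all listed) in √10 steps. Relative viability is the nuclei count of treated wells divided by that of vehicle wells, and values are medians of duplicate plates.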

[2] = compound: Nc1ccccc1NC(=O)c1ccc(CNC(=O)OCc2cccnc2)cc1 [Entinostat] + Nc1ncn([C@H]2C[C@H](O)[C@@H](CO)O2)c(=O)n1 [Decitabine] (partner 2 µM)
In short: as §1

[3] = compound: CN1CCC(CNc2ccc3ncc(-c4cccc(OC(F)(F)F)c4)n3n2)CC1 [SGI-1776] + COc1cc2c(Oc3ccc(NC(=O)C4(C(=O)Nc5ccc(F)cc5)CC4)cc3F)ccnc2cc1OCCCN1CCOCC1 [Foretinib] (partner 0.25 µM)
In short: as §1

[4] = compound: CN1CCC(CNc2ccc3ncc(-c4cccc(OC(F)(F)F)c4)n3n2)CC1 [SGI-1776] + CC(=O)c1c(C)c2cnc(Nc3ccc(N4CCNCC4)cn3)nc2n(C2CCCC2)c1=O [Palbociclib] (partner 0.5 µM)
In short: as §1

Cell Line	relative viability ([1]; first compound 0.02 µM)	relative viability ([1]; first compound 0.06325 µM)	relative viability ([1]; first compound 0.2 µM)	relative viability ([1]; first compound 0.6325 µM)	relative viability ([1]; first compound 2 µM)	relative viability ([2]; first compound 0.02 µM)	relative viability ([2]; first compound 0.06325 µM)	relative viability ([2]; first compound 0.2 µM)	relative viability ([2]; first compound 0.6325 µM)	relative viability ([2]; first compound 2 µM)	relative viability ([3]; first compound 0.08 µM)	relative viability ([3]; first compound 0.8 µM)	relative viability ([3]; first compound 2.53 µM)	relative viability ([3]; first compound 8 µM)	relative viability ([4]; first compound 0.08 µM)	relative viability ([4]; first compound 0.8 µM)	relative viability ([4]; first compound 2.53 µM)	relative viability ([4]; first compound 8 µM)
NCI-H2126	0.889	0.962	0.876	0.865	0.532	0.557	0.53	0.57	0.418	0.346	1.29	1.27	1.44	1.06	0.389	0.334	0.361	0.331
NCI-H2170	0.736	0.652	0.528	0.624	0.41	0.465	0.468	0.376	0.281	0.236	0.959	1	1.02	0.987	0.376	0.349	0.408	0.364
NCI-H2342	0.472	0.46	0.402	0.391	0.4	0.806	0.704	0.65	0.607	0.557	1.22	1.07	1.04	1.04	0.609	0.539	0.55	0.535
NCI-H2347	0.532	0.625	0.571	0.517	0.532	0.611	0.585	0.494	0.471	0.363	0.836	0.862	0.531	0.84	0.414	0.455	0.44	0.426
NCI-H2405	0.856	0.862	0.874	0.891	0.659	0.693	0.784	0.686	0.501	0.511	1.07	1	0.998	0.934	0.553	0.516	0.484	0.44
NCI-H3122	0.665	0.614	0.625	0.935	0.483	0.439	0.47	0.477	0.339	0.243	0.968	0.964	1.04	1.04	0.206	0.2	0.173	0.165
PC-3 [JPC-3]	1.19	1.19	–	1.17	0.709	0.778	0.852	0.731	0.573	0.55	1.03	1.01	1.08	0.978	0.518	0.534	0.533	0.49
PC-14	0.304	0.284	0.249	0.248	0.186	0.248	0.184	0.189	0.109	0.0779	1.03	0.959	0.952	0.672	0.573	0.448	0.436	0.0558
RERF-LC-KJ	0.953	0.982	0.866	0.93	0.554	0.712	0.685	0.663	0.369	0.285	0.879	0.894	0.879	0.78	1.01	1.06	1.07	0.748
